# Test results taken from patent publication US20100130604A1, “USE OF ROSMARINIC ACID IN MANUFACTURE OF MEDICAMENTS FOR TREATING OR PREVENTING HEPATIC AND RENAL DISEASES” (SHANGDONG LUYE NATURAL DRUG RESEARCH AND DEVELOPMENT CO., …, priority 2006, published 2010).
# What was measured:
# [1] = test system: rats with diabetic nephropathy; assay: Diabetic nephropathy in rats (left nephrectomy + streptozocin); assay type: in vivo, Sprague Dawley rats; settings: for creatinine: serum
# Protocol: After 1 week-long acclimation period, animals were anaesthetised with 10% chloral hydrate (0.35 mL/100 g, i.p.) and nephrectomy was exercised to the left kidney. One week later, a single dose of 1% of streptozocin solution was i.v. injected to all animals at 60 mg/kg. After 72h, blood was collected from eyepit to test blood glucose level with the above-mentioned kit. The model was considered successful when blood glucose level >16.7 mmol/L. When the model is established, 130 rats were randomly divided into 13 groups, with 10 animals in each group, namely, a normal control group, a model group, benzanapril p.o. Group at 10 mg/kg, RA i.v. groups at 2.5 mg/kg, 5 mg/kg, 25 mg/kg, 75 mg/kg, and 150 mg/kg of RA, and RA p.o. groups at 5 mg/kg, 10 mg/kg, 50 mg/kg, 150 mg/kg, and 300 mg/kg of RA. The drugs were administered once every day. Blood was collected from eyepit at week 8 and week 16 to determine serum levels of creatinine and urea nitrogen. Urinary protein excretion within 24 hours was also studied. The animals were sacrificed 24 hours after the last dose and kidney removed for histopathological examination.
# [2] = test system: proximal tubular epithelial cells (PTECs); assay: Proliferation of PTECs cultured in glucose-rich medium (MTT); assay type: cell-based; settings: for OD value: 72 h, 570 nm
# Protocol: A 1000 mg/L stock solution of RA in DMEM medium was prepared, and filtered through 0.22 μm microfilter to remove bacteria. The stock was then aliquoted in appropriate containers and stored at −20° C. in darkness. It is good for use within 2 weeks. DMEM supplemented with 2% fetal bovine serum (FBS) was used to dilute the stock to desired concentrations before use.
# Remove frozen vials storing PTECs from liquid nitrogen, thaw in water bath at 37° C. for 5 min, centrifuge at 1000 r·min^−1 for 5 min, and discard the supernatant. Blow up the cells with culture medium and transfer them into flasks for static culture. The medium was DMEM supplemented with 10 v % FBS, 1×10^5 U·L^−1 penicillin, 100 mg·L^−1 streptomycin. The cells are cultured at 37° C., 5% CO2, and saturated humidity for 2-3 days before 0.25% trypsin were used to digest the cells which were then passaged.
# PTEC cells at logarithmic phase were seeded to 96-well plate at the density of 1×10^5/mL. The medium was replaced with serum-free DMEM 24 hours later and the cell culture was cultured statically for 24 hours. Discard the supernatant, dose the wells according to table 3: normal control group (NG, 5 mmol·L^−1), high glucose group (HG, 30 mmol·L^−1), NG+10 mg/L RA group, NG+50 mg/L of RA group, HG+10 mg/L of RA group, HG50 mg/L of RA group, with 6 wells in each group. Incubate for 72 hours respectively. Add 20 μL of MTT (5 mg·mL^−1) to each well 4 hours before the experiment is terminated. Remove supernatant 4 hours later, and 150 μL of DMSO was added to each well, shake for 10 min and use ELISA reader to determine OD value at 570 nm.
smiles,measurement,setting,value
"O=C(/C=C/c1ccc(O)c(O)c1)O[C@H](Cc1ccc(O)c(O)c1)C(=O)O [RA, R(+)2-{[3-(3,4-dihydroxylphenyl-(oxo-2-propenyl)oxy]3,4-dihydroxylphenylpropionic acid]}]",24 h urinary protein excretion,"[1]; 8 weeks, i.v. 2.5 mg/kg",20.29 ± 2.21 mg/24 h
same,Blood glucose,"[1]; 8 weeks, i.v. 2.5 mg/kg",21.23 ± 5.66 mmol/L
same,Serum urea nitrogen,"[1]; 8 weeks, i.v. 2.5 mg/kg",18.01 ± 1.62 mg/dL
same,24 h urinary protein excretion,"[1]; 8 weeks, i.v. 5 mg/kg",19.19 ± 2.15 mg/24 h
same,Blood glucose,"[1]; 8 weeks, i.v. 5 mg/kg",21.02 ± 6.14 mmol/L
same,Serum urea nitrogen,"[1]; 8 weeks, i.v. 5 mg/kg",17.91 ± 1.80 mg/dL
same,24 h urinary protein excretion,"[1]; 8 weeks, i.v. 25 mg/kg",17.59 ± 2.12 mg/24 h
same,Blood glucose,"[1]; 8 weeks, i.v. 25 mg/kg",21.15 ± 5.74 mmol/L
same,Serum urea nitrogen,"[1]; 8 weeks, i.v. 25 mg/kg",15.42 ± 3.36 mg/dL
same,24 h urinary protein excretion,"[1]; 8 weeks, i.v. 75 mg/kg",16.78 ± 2.52 mg/24 h
same,Blood glucose,"[1]; 8 weeks, i.v. 75 mg/kg",21.03 ± 4.74 mmol/L
same,Serum urea nitrogen,"[1]; 8 weeks, i.v. 75 mg/kg",14.76 ± 2.19 mg/dL
same,24 h urinary protein excretion,"[1]; 8 weeks, i.v. 150 mg/kg",16.39 ± 2.25 mg/24 h
same,Blood glucose,"[1]; 8 weeks, i.v. 150 mg/kg",21.23 ± 5.54 mmol/L
same,Serum urea nitrogen,"[1]; 8 weeks, i.v. 150 mg/kg",13.87 ± 1.75 mg/dL
same,24 h urinary protein excretion,"[1]; 8 weeks, p.o. 5 mg/kg",20.59 ± 2.34 mg/24 h
same,Blood glucose,"[1]; 8 weeks, p.o. 5 mg/kg",21.23 ± 6.36 mmol/L
same,Serum urea nitrogen,"[1]; 8 weeks, p.o. 5 mg/kg",19.37 ± 3.85 mg/dL
same,24 h urinary protein excretion,"[1]; 8 weeks, p.o. 10 mg/kg",19.11 ± 2.19 mg/24 h
same,Blood glucose,"[1]; 8 weeks, p.o. 10 mg/kg",20.87 ± 6.55 mmol/L
same,Serum urea nitrogen,"[1]; 8 weeks, p.o. 10 mg/kg",17.57 ± 2.70 mg/dL
same,24 h urinary protein excretion,"[1]; 8 weeks, p.o. 50 mg/kg",17.89 ± 2.64 mg/24 h
same,Blood glucose,"[1]; 8 weeks, p.o. 50 mg/kg",21.07 ± 5.46 mmol/L
same,Serum urea nitrogen,"[1]; 8 weeks, p.o. 50 mg/kg",15.96 ± 1.95 mg/dL
same,24 h urinary protein excretion,"[1]; 8 weeks, p.o. 150 mg/kg",17.18 ± 2.56 mg/24 h
same,Blood glucose,"[1]; 8 weeks, p.o. 150 mg/kg",21.32 ± 6.44 mmol/L
same,Serum urea nitrogen,"[1]; 8 weeks, p.o. 150 mg/kg",14.76 ± 2.65 mg/dL
same,24 h urinary protein excretion,"[1]; 8 weeks, p.o. 300 mg/kg",16.89 ± 2.75 mg/24 h
same,Blood glucose,"[1]; 8 weeks, p.o. 300 mg/kg",20.97 ± 5.54 mmol/L
same,Serum urea nitrogen,"[1]; 8 weeks, p.o. 300 mg/kg",14.42 ± 2.90 mg/dL
same,24 h urinary protein excretion,"[1]; 16 weeks, i.v. 2.5 mg/kg",60.96 ± 6.85 mg/24 h
same,Blood glucose,"[1]; 16 weeks, i.v. 2.5 mg/kg",22.02 ± 5.34 mmol/L
same,Serum urea nitrogen,"[1]; 16 weeks, i.v. 2.5 mg/kg",33.91 ± 3.60 mg/dL
same,24 h urinary protein excretion,"[1]; 16 weeks, i.v. 5 mg/kg",57.28 ± 8.46 mg/24 h
same,Blood glucose,"[1]; 16 weeks, i.v. 5 mg/kg",22.15 ± 4.24 mmol/L
same,Serum urea nitrogen,"[1]; 16 weeks, i.v. 5 mg/kg",30.42 ± 7.36 mg/dL
same,24 h urinary protein excretion,"[1]; 16 weeks, i.v. 25 mg/kg",55.34 ± 7.67 mg/24 h
same,Blood glucose,"[1]; 16 weeks, i.v. 25 mg/kg",22.03 ± 4.59 mmol/L
same,Serum urea nitrogen,"[1]; 16 weeks, i.v. 25 mg/kg",26.76 ± 4.19 mg/dL
same,24 h urinary protein excretion,"[1]; 16 weeks, i.v. 75 mg/kg",54.78 ± 7.96 mg/24 h
same,Blood glucose,"[1]; 16 weeks, i.v. 75 mg/kg",22.35 ± 7.28 mmol/L
same,Serum urea nitrogen,"[1]; 16 weeks, i.v. 75 mg/kg",23.07 ± 3.95 mg/dL
same,24 h urinary protein excretion,"[1]; 16 weeks, i.v. 150 mg/kg",54.28 ± 7.46 mg/24 h
same,Blood glucose,"[1]; 16 weeks, i.v. 150 mg/kg",22.23 ± 6.24 mmol/L
same,Serum urea nitrogen,"[1]; 16 weeks, i.v. 150 mg/kg",22.57 ± 3.45 mg/dL
same,24 h urinary protein excretion,"[1]; 16 weeks, p.o. 5 mg/kg",65.55 ± 8.71 mg/24 h
same,Blood glucose,"[1]; 16 weeks, p.o. 5 mg/kg",22.23 ± 5.66 mmol/L
same,Serum urea nitrogen,"[1]; 16 weeks, p.o. 5 mg/kg",39.37 ± 3.85 mg/dL
same,24 h urinary protein excretion,"[1]; 16 weeks, p.o. 10 mg/kg",61.33 ± 6.65 mg/24 h
same,Blood glucose,"[1]; 16 weeks, p.o. 10 mg/kg",21.87 ± 5.55 mmol/L
same,Serum urea nitrogen,"[1]; 16 weeks, p.o. 10 mg/kg",38.37 ± 3.85 mg/dL
same,24 h urinary protein excretion,"[1]; 16 weeks, p.o. 50 mg/kg",57.28 ± 8.46 mg/24 h
same,Blood glucose,"[1]; 16 weeks, p.o. 50 mg/kg",22.07 ± 4.46 mmol/L
same,Serum urea nitrogen,"[1]; 16 weeks, p.o. 50 mg/kg",34.57 ± 5.60 mg/dL
same,24 h urinary protein excretion,"[1]; 16 weeks, p.o. 150 mg/kg",56.28 ± 8.76 mg/24 h
same,Blood glucose,"[1]; 16 weeks, p.o. 150 mg/kg",21.32 ± 6.34 mmol/L
same,Serum urea nitrogen,"[1]; 16 weeks, p.o. 150 mg/kg",28.96 ± 3.95 mg/dL
same,24 h urinary protein excretion,"[1]; 16 weeks, p.o. 300 mg/kg",55.78 ± 9.46 mg/24 h
same,Blood glucose,"[1]; 16 weeks, p.o. 300 mg/kg",21.97 ± 5.34 mmol/L
same,Serum urea nitrogen,"[1]; 16 weeks, p.o. 300 mg/kg",27.76 ± 5.30 mg/dL
same,kidney pathological examination,[1]; RA treated groups vs model group,fewer lesions than the model group in a dose-dependent manner
same,creatinine,"[1]; 8 weeks, i.v. 2.5 mg/kg",0.91 ± 0.12 mg/dL
same,creatinine,"[1]; 8 weeks, i.v. 5 mg/kg",0.90 ± 0.09 mg/dL
same,creatinine,"[1]; 8 weeks, i.v. 25 mg/kg",0.75 ± 0.18 mg/dL
same,creatinine,"[1]; 8 weeks, i.v. 75 mg/kg",0.72 ± 0.15 mg/dL
same,creatinine,"[1]; 8 weeks, i.v. 150 mg/kg",0.69 ± 0.11 mg/dL
same,creatinine,"[1]; 8 weeks, p.o. 5 mg/kg",0.96 ± 0.09 mg/dL
same,creatinine,"[1]; 8 weeks, p.o. 10 mg/kg",0.88 ± 0.15 mg/dL
same,creatinine,"[1]; 8 weeks, p.o. 50 mg/kg",0.77 ± 0.13 mg/dL
same,creatinine,"[1]; 8 weeks, p.o. 150 mg/kg",0.75 ± 0.12 mg/dL
same,creatinine,"[1]; 8 weeks, p.o. 300 mg/kg",1.40 ± 0.28 mg/dL
same,creatinine,"[1]; 16 weeks, i.v. 2.5 mg/kg",1.60 ± 0.18 mg/dL
same,creatinine,"[1]; 16 weeks, i.v. 5 mg/kg",1.52 ± 0.37 mg/dL
same,creatinine,"[1]; 16 weeks, i.v. 25 mg/kg",1.32 ± 0.28 mg/dL
same,creatinine,"[1]; 16 weeks, i.v. 75 mg/kg",1.26 ± 0.28 mg/dL
same,creatinine,"[1]; 16 weeks, i.v. 150 mg/kg",1.20 ± 0.22 mg/dL
same,creatinine,"[1]; 16 weeks, p.o. 5 mg/kg",1.97 ± 0.19 mg/dL
same,creatinine,"[1]; 16 weeks, p.o. 10 mg/kg",1.92 ± 0.19 mg/dL
same,creatinine,"[1]; 16 weeks, p.o. 50 mg/kg",1.77 ± 0.28 mg/dL
same,creatinine,"[1]; 16 weeks, p.o. 150 mg/kg",1.53 ± 0.28 mg/dL
same,creatinine,"[1]; 16 weeks, p.o. 300 mg/kg",1.50 ± 0.26 mg/dL
same,"serum creatinine, urea nitrogen, 24-hour urinary protein excretion","[1]; week 8 and week 16, i.v. 2.5, 5, 25, 75, 150 mg/kg, p.o. 5, 10, 50, 150, 300 mg/kg",can all significantly reduce serum creatinine and urea nitrogen levels as well as 24-hour urinary protein excretion
same,OD value,[2]; HG (30 mmol/L glucose) + 10 mg/L RA,1.289 ± 0.041
same,OD value,[2]; HG (30 mmol/L glucose) + 50 mg/L RA,1.317 ± 0.077
same,OD value,[2]; NG (5 mmol/L glucose) + 10 mg/L RA,1.168 ± 0.106
same,OD value,[2]; NG (5 mmol/L glucose) + 50 mg/L RA,1.052 ± 0.036
same,PTECs proliferation induced by high level of glucose,"[2]; certain concentrations of RA, P<0.05",can inhibit PTECs proliferation induced by high level of glucose
